Data taken from patent publication US20260131016A1, “NOVEL AURISTATIN ANALOGS AND IMMUNOCONJUGATES THEREOF” (ADCENTRX THERAPEUTICS INC., priority 2021, published 2026).
Like-named read-outs stand apart in the source and are kept apart here.

How the values were obtained:
[1] = test system: HCC1954 breast ductal carcinoma; test: Cell viability (Cell Titer Glo 2.0) in HCC1954, 120 hours; type: cell-based; conditions: for potency compared to the 1,4-NH2 configuration of the P5 moiety in 19 and 26: HCC1954 and T47D assays
Experimental: (§1) HCC1954 breast ductal carcinoma and T47D cells (ATCC, Manassas, VA, USA) were seeded into 384-well white-walled culture plates and allowed to adhere for 2-4 hours. Cells were then treated at least in duplicate by addition of 5-fold serially diluted test articles prepared at 2× final concentration and incubated at 37° C. for 120 hours. Cell viability following treatment was determined by Cell Titer Glo 2.0 Assay (Promega, Madison, WI, USA) and normalized to non-treated controls. Dose-response relationships were analyzed using GraphPad Prism (La Jolla, CA, USA), and IC50 values were derived from non-linear regression analyses using a 4-parameter logistic equation.

T47D cells = test: Cell viability (Cell Titer Glo 2.0) in T47D cells, 120 hours; type: cell-based
Experimental: as §1

[2] = Homo sapiens, HCC1954, 120 h, read-out: IC50 (nM), in vitro potency in HCC1954
[3] = N-methylated analogs 1,2-/1,3-/1,4-NH2, relative to the 1,3-NH2 analog (=1)
[4] = NCH3-amide compared to its NH-amide analog (=1)
[5] = Trastuzumab conjugate of the numbered linker-payload, HCC1954, read-out: ADC (Trastuzumab) IC50 in HCC1954 assay

CC[C@H](C)[C@@H]([C@@H](CC(=O)N1CCC[C@H]1[C@H](OC)[C@@H](C)C(=O)N(C)CCc1cccc(N)c1)OC)N(C)C(=O)[C@@H](NC(=O)[C@H](C(C)C)N(C)C)C(C)C [Compound 1, (S)-N-((3R,4S,5S)-1-((S)-2-((1R,2R)-3-((3-aminophenethyl)(methyl)amino)-1-methoxy-2-methyl-3-oxopropyl)pyrrolidin-1-yl)-3-methoxy-5-methyl-1-oxoheptan-4-yl)-2-((S)-2-(dimethylamino)-3-methylbutanamido)-N,3-dimethylbutanamide]
potency compared to the 1,4-NH2 configuration of the P5 moiety in 19 and 26 [1]: more potent
IC50 [1, 2]: < 5 nM
IC50 (fold difference) HCC1954 [1, 3]: 1 fold difference
IC50 (fold difference) HCC1954 [1, 4]: 1.5 fold difference
IC50 (fold difference) T47D (T47D cells; [3]): 1 fold difference
IC50 (fold difference) T47D (T47D cells; [4]): 1.6 fold difference

CC[C@H](C)[C@@H]([C@@H](CC(=O)N1CCC[C@H]1[C@H](OC)[C@@H](C)C(=O)N(C)CCc1cccc(N)c1)OC)N(C)C(=O)[C@@H](NC(=O)[C@H](C)N(C)C)C(C)C [Compound 2, (S)-N-((3R,4S,5S)-1-((S)-2-((1R,2R)-3-((3-aminophenethyl)(methyl)amino)-1-methoxy-2-methyl-3-oxopropyl)pyrrolidin-1-yl)-3-methoxy-5-methyl-1-oxoheptan-4-yl)-2-((S)-2-(dimethylamino)propanamido)-N,3-dimethylbutanamide]
potency compared to the 1,4-NH2 configuration of the P5 moiety in 19 and 26 [1]: more potent
IC50 [1, 2]: < 5 nM
IC50 (fold difference) HCC1954 [1, 3]: 1 fold difference
IC50 (fold difference) T47D (T47D cells; [3]): 1 fold difference

CC[C@H](C)[C@@H]([C@@H](CC(=O)N1CCC[C@H]1[C@H](OC)[C@@H](C)C(=O)N(C)CCc1ccccc1N)OC)N(C)C(=O)[C@@H](NC(=O)[C@H](C(C)C)N(C)C)C(C)C [Compound 14, (S)-N-((3R,4S,5S)-1-((S)-2-((1R,2R)-3-((2-aminophenethyl)(methyl)amino)-1-methoxy-2-methyl-3-oxopropyl)pyrrolidin-1-yl)-3-methoxy-5-methyl-1-oxoheptan-4-yl)-2-((S)-2-(dimethylamino)-3-methylbutanamido)-N,3-dimethylbutanamide]
potency compared to the 1,4-NH2 configuration of the P5 moiety in 19 and 26 [1]: more potent
IC50 [1, 2]: < 5 nM
IC50 (fold difference) HCC1954 [1, 3]: 0.8 fold difference
IC50 (fold difference) HCC1954 [1, 4]: 2.0 fold difference
IC50 (fold difference) T47D (T47D cells; [3]): 1.3 fold difference
IC50 (fold difference) T47D (T47D cells; [4]): 1.8 fold difference

CC[C@H](C)[C@@H]([C@@H](CC(=O)N1CCC[C@H]1[C@H](OC)[C@@H](C)C(=O)N(C)CCc1cccc(NC(=O)[C@H](C)NC(=O)[C@H](C)NC(=O)CN2C(=O)C=CC2=O)c1)OC)N(C)C(=O)[C@@H](NC(=O)[C@H](C(C)C)N(C)C)C(C)C [Compound 28, (S)-2-((S)-2-(dimethylamino)-3-methylbutanamido)-N-((3R,4S,5S)-1-((S)-2-((1R,2R)-3-((3-((S)-2-((S)-2-(2-(2,5-dioxo-2,5-dihydro-1H-pyrrol-1-yl)acetamido)propanamido)propanamido)phenethyl)(methyl)amino)-1-methoxy-2-methyl-3-oxopropyl)pyrrolidin-1-yl)-3-methoxy-5-methyl-1-oxoheptan-4-yl)-N,3-dimethylbutanamide 2,2,2-trifluoroacetate]
IC50 [1, 5]: < 5 nM

CC[C@H](C)[C@@H]([C@@H](CC(=O)N1CCC[C@H]1[C@H](OC)[C@@H](C)C(=O)N(C)CCc1cccc(NC(=O)[C@H](C)NC(=O)[C@H](C)NC(=O)CN2C(=O)C=CC2=O)c1)OC)N(C)C(=O)[C@@H](NC(=O)[C@H](C)N(C)C)C(C)C [Compound 29, (S)-2-((S)-2-(dimethylamino)propanamido)-N-((3R,4S,5S)-1-((S)-2-((1R,2R)-3-((3-((S)-2-((S)-2-(2-(2,5-dioxo-2,5-dihydro-1H-pyrrol-1-yl)acetamido)propanamido)propanamido)phenethyl)(methyl)amino)-1-methoxy-2-methyl-3-oxopropyl)pyrrolidin-1-yl)-3-methoxy-5-methyl-1-oxoheptan-4-yl)-N,3-dimethylbutanamide 2,2,2-trifluoroacetate]
IC50 [1, 5]: < 5 nM

CC[C@H](C)[C@@H]([C@@H](CC(=O)N1CCC[C@H]1[C@H](OC)[C@@H](C)C(=O)N(C)CCc1cccc(NC(=O)[C@H](C)NC(=O)[C@H](C)NC(=O)CN2C(=O)C=CC2=O)c1)OC)N(C)C(=O)[C@@H](NC(=O)[C@@H](C)N(C)C)C(C)C [Compound 30, (S)-2-((R)-2-(dimethylamino)propanamido)-N-((3R,4S,5S)-1-((S)-2-((1R,2R)-3-((3-((S)-2-((S)-2-(2-(2,5-dioxo-2,5-dihydro-1H-pyrrol-1-yl)acetamido)propanamido)propanamido)phenethyl)(methyl)amino)-1-methoxy-2-methyl-3-oxopropyl)pyrrolidin-1-yl)-3-methoxy-5-methyl-1-oxoheptan-4-yl)-N,3-dimethylbutanamide 2,2,2-trifluoroacetate]
IC50 [1, 5]: < 5 nM

CC[C@H](C)[C@@H]([C@@H](CC(=O)N1CCC[C@H]1[C@H](OC)[C@@H](C)C(=O)N(C)CCc1cccc(NC(=O)[C@H](C)NC(=O)[C@H](C)NC(=O)CN2C(=O)C=CC2=O)c1)OC)N(C)C(=O)[C@@H](NC(=O)CN(C)C)C(C)C [Compound 31, (S)-2-(2-(dimethylamino)acetamido)-N-((3R,4S,5S)-1-((S)-2-((IR,2R)-3-((3-((S)-2-((S)-2-(2-(2,5-dioxo-2,5-dihydro-1H-pyrrol-1-yl)acetamido)propanamido)propanamido)phenethyl)(methyl)amino)-1-methoxy-2-methyl-3-oxopropyl)pyrrolidin-1-yl)-3-methoxy-5-methyl-1-oxoheptan-4-yl)-N,3-dimethylbutanamide 2,2,2-trifluoroacetate]
IC50 [1, 5]: < 5 nM

CC[C@H](C)[C@@H]([C@@H](CC(=O)N1CCC[C@H]1[C@H](OC)[C@@H](C)C(=O)N(C)CCc1cccc(NC(=O)[C@H](C)NC(=O)[C@H](C)NC(=O)CN2C(=O)C=CC2=O)c1)OC)N(C)C(=O)[C@@H](NC(=O)C(C)(C)N(C)C)C(C)C [Compound 32, (S)-2-(2-(dimethylamino)-2-methylpropanamido)-N-((3R,4S,5S)-1-((S)-2-((1R,2R)-3-((3-((S)-2-((S)-2-(2-(2,5-dioxo-2,5-dihydro-1H-pyrrol-1-yl)acetamido)propanamido)propanamido)phenethyl)(methyl)amino)-1-methoxy-2-methyl-3-oxopropyl)pyrrolidin-1-yl)-3-methoxy-5-methyl-1-oxoheptan-4-yl)-N,3-dimethylbutanamide 2,2,2-trifluoroacetate]
IC50 [1, 5]: < 5 nM

CC[C@H](C)[C@@H]([C@@H](CC(=O)N1CCC[C@H]1[C@H](OC)[C@@H](C)C(=O)N(C)CCc1cccc(NC(=O)[C@H](C)NC(=O)[C@H](C)NC(=O)CN2C(=O)C=CC2=O)c1)OC)N(C)C(=O)[C@@H](NC(=O)C1(N(C)C)CCC1)C(C)C [Compound 33, 1-(dimethylamino)-N-((S)-1-(((3R,4S,5S)-1-((S)-2-((1R,2R)-3-((3-((S)-2-((S)-2-(2-(2,5-dioxo-2,5-dihydro-1H-pyrrol-1-yl)acetamido)propanamido)propanamido)phenethyl)(methyl)amino)-1-methoxy-2-methyl-3-oxopropyl)pyrrolidin-1-yl)-3-methoxy-5-methyl-1-oxoheptan-4-yl)(methyl)amino)-3-methyl-1-oxobutan-2-yl)cyclobutanecarboxamide 2,2,2-trifluoroacetate]
IC50 [1, 5]: > 10 nM

CC[C@H](C)[C@@H]([C@@H](CC(=O)N1CCC[C@H]1[C@H](OC)[C@@H](C)C(=O)N(C)CCc1cccc(NC(=O)[C@H](C)NC(=O)[C@H](C)NC(=O)CN2C(=O)C=CC2=O)c1)OC)N(C)C(=O)[C@@H](NC(=O)[C@H]1CCCN1C)C(C)C [Compound 37, (R)-N-((S)-1-(((3R,4S,5S)-1-((S)-2-((IR,2R)-3-((3-((S)-2-((S)-2-(2-(2,5-dioxo-2,5-dihydro-1H-pyrrol-1-yl)acetamido)propanamido)propanamido)phenethyl)(methyl)amino)-1-methoxy-2-methyl-3-oxopropyl)pyrrolidin-1-yl)-3-methoxy-5-methyl-1-oxoheptan-4-yl)(methyl)amino)-3-methyl-1-oxobutan-2-yl)-1-methylpyrrolidine-2-carboxamide 2,2,2-trifluoroacetate]
IC50 [1, 5]: < 5 nM

CC[C@H](C)[C@@H]([C@@H](CC(=O)N1CCC[C@H]1[C@H](OC)[C@@H](C)C(=O)N(C)CCc1cccc(NC(=O)[C@H](C)NC(=O)[C@H](C)NC(=O)CN2C(=O)C=CC2=O)c1)OC)N(C)C(=O)[C@@H](NC(=O)C(C)(C)CN(C)C)C(C)C [Compound 38, (S)-2-(3-(dimethylamino)-2,2-dimethylpropanamido)-N-((3R,4S,5S)-1-((S)-2-((1R,2R)-3-((3-((S)-2-((S)-2-(2-(2,5-dioxo-2,5-dihydro-1H-pyrrol-1-yl)acetamido)propanamido)propanamido)phenethyl)(methyl)amino)-1-methoxy-2-methyl-3-oxopropyl)pyrrolidin-1-yl)-3-methoxy-5-methyl-1-oxoheptan-4-yl)-N,3-dimethylbutanamide 2,2,2-trifluoroacetate]
IC50 [1, 5]: > 10 nM

CC[C@H](C)[C@@H]([C@@H](CC(=O)N1CCC[C@H]1[C@H](OC)[C@@H](C)C(=O)N[C@@H](Cc1ccccc1)c1nccs1)OC)N(C)C(=O)[C@@H](NC(=O)[C@H](C(C)C)N(C)C)C(C)C [Dolastatin 10, dolastatin 10, reference compound]
IC50[N—Me amide]/IC50[NH-amide] ([1]; HCC1954 5-Day Assay, N-methylation of the amide between P4 and P5): 240
